# Legend:
# Assay type in all cases: cell-based
# [1] = biological target: T1, GLUT3 (Homo sapiens, UniProt P11169); test: GLUT3 transporter activity assay (2-DG uptake) in DLD-1-GLUT1-/- cells; conditions: DLD-1-GLUT1-/- cell line; read-out: GLUT3 inhibitory activity (IC50)
# T1 construct: host or cells: DLD-1-GLUT1(-/-) cells
# T1 sequence (P11169 1-496): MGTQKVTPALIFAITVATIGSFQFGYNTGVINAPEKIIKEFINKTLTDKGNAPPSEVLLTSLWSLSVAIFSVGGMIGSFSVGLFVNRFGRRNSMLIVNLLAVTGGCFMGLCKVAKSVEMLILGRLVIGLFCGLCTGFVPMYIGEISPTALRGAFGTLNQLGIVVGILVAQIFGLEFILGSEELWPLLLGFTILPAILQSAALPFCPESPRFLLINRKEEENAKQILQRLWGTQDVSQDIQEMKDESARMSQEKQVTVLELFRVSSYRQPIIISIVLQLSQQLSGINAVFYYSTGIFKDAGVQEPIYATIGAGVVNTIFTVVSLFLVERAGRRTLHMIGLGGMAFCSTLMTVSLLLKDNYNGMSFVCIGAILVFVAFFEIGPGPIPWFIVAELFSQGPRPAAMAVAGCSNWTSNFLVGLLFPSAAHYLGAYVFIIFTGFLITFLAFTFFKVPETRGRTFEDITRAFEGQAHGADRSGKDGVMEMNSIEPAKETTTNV
# Description: (§1) GLUT 1, 2, 3 and 4 Transporter Activity Assays
# (§2) Assays were based on the specificity assays reported by Kapoor et al., Proceedings of the National Academy of Sciences 2016, 113 (17) 4711-4716. For GLUT1, GLUT2, GLUT3 and GLUT4 specificity testing DLD1, CHO-hGLUT2, DLD-1-GLUT1−/− and CHO-hGLUT4 cell lines were used.
# (§3) Assay protocols for 2-deoxy-Glucose (2-DG) Uptake Assay with DLD1 or DLD1-Glut1(−/−) cells or 7,000 CHOK1-SLC2A4 cells lines:
# (§4) 14,000 DLD1 or DLD1-Glut1(−/−) cells or 7,000 CHOK1-SLC2A4 cells were seeded in black, clear bottom 384-well plates in glucose- and phenolred-free RPMI1640 medium supplemented with 1% FCS and 2 mM L-glutamine and allowed to attach overnight. Next day, cells were washed and incubated with compounds or DMSO and 1 mM 2-DG in glucose- and phenolred-free RPMI1640 medium for 30 min. Cells were then washed and lysed in 0.06 M HCl and 1% CHAPS for 15 min at 65° C. The amount of 2-DG in the lysate was determined by means of enzyme-coupled assay. For this 16 U/mL glucose-6-phosphate dehydrogenase, 0.2 U/mL diaphorase, 0.1 mM NADP^+ and 10 μM resazurin were added to the lysates. Resorufin fluorescence was determined as a measure of 2-DG uptake at ex/em 535/590 nm with a Victor Multilabel plate reader (Perkin Elmer). Blank values were subtracted from all readings and values were normalized to the DMSO control.
# [2] = biological target: T2, GLUT4 (Homo sapiens, UniProt P14672); test: GLUT4 transporter activity assay (2-DG uptake) in CHO-hGLUT4 cells; conditions: CHO-hGLUT4 cell line; read-out: GLUT4 inhibitory activity (IC50)
# T2 sequence (P14672 1-509): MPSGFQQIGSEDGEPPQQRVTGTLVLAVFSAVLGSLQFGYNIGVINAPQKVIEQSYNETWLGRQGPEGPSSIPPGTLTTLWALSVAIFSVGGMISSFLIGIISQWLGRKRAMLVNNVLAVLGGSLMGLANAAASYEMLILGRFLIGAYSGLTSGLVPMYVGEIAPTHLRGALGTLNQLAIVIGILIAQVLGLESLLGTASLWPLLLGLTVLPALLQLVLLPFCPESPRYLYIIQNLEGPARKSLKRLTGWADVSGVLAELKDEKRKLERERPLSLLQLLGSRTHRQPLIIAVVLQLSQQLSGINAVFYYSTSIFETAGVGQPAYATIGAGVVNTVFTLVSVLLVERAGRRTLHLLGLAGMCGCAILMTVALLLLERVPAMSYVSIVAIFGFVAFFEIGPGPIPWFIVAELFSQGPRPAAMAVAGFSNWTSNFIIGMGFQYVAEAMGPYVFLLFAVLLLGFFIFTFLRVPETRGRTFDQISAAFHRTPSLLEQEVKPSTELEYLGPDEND
# Description: CHOK1-SLC2A4 cells were generated by transfection of CHOK1 cells with pCMV6-Entry-GLUT4 (Origene #SC125240) using Lipofectamin2000 according to the supplier's instructions. Briefly, 1.5E5 cells/well CHOK1 cells were seeded in 6-well cell culture plates. After overnight incubation, DNA-lipid complexes (2 μg plasmid DNA, DNA:lipid ratio 1:10) were prepared in OptiMEM and then added to the cells. After 5 days incubation, 800 μg G418 was added to the culture medium to generate a stable polyclone. For monoclone selection, single cells were re-plated in 96-well plates, expanded and selected by transgene overexpression and functional performance.
# as §1, §2, §3, §4
# [3] = biological target: T3, GLUT1 (Homo sapiens, UniProt P11166); test: GLUT1 transporter activity assay (2-DG uptake) in DLD1 cells; conditions: DLD1 cell line; read-out: GLUT1 inhibitory activity (IC50)
# T3 construct: host or cells: DLD-1 (DLD1) cells
# T3 sequence (P11166 1-492): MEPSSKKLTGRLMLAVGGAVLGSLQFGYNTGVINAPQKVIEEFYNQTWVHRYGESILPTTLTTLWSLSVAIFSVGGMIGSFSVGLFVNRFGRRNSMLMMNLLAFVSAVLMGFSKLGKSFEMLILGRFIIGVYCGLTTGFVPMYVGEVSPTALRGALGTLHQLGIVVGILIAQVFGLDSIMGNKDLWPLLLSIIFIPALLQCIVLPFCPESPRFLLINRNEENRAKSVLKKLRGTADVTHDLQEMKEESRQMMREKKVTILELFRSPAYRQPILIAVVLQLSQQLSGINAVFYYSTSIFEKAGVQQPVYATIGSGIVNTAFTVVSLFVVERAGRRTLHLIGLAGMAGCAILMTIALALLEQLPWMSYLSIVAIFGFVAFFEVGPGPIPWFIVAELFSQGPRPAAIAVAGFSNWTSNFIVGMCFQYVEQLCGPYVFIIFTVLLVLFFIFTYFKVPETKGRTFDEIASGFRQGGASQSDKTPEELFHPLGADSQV
# Description: as §1, §2, §3, §4
# [4] = tested on: HCT116 cells; test: 2-Deoxy-Glucose (2-DG) uptake assay in HCT116 cells; conditions: Homo sapiens, HCT-116, 0.5 h, 1 mM 2-DG, 30 min, read-out: IC50 determined for the inhibition of 2-DG uptake in HCT116 cells
# Description: The 2-DG uptake assay was carried out as described by Yamamoto N. et al. with slight modifications ([…]). Briefly, 40,000 HCT116 or CHO cells were seeded in black, clear bottom 96-well plates and allowed to attach overnight. Cells were incubated with compounds or DMSO and 1 mM 2-DG in glucose-free KRB buffer (20 mM HEPES, 5 mM KH2PO4, 1 mM MgSO4, 1 mM CaCl2), 136 mM NaCl, 0.1% BSA, pH 7.4) for 30 min. In the case of GLUT-4 transfected cells, Insulin (100 μg/mL) was added to the buffer. Cells were then washed and lysed in 0.06 M HCl and 1% CHAPS for 15 min at 65° C. while shaking. The amount of 2-DG in the lysate was determined by means of enzyme-coupled assay. For this 6.4 U/mL glucose-6-phosphate dehydrogenase, 0.2 U/mL diaphorase, 0.1 mM NADP^+ and 0.025 mg/mL resazurin were added to the lysates. Resorufin fluorescence was determined as a measure of 2-DG uptake at ex/em 535/590 nm with a Tecan Infinite M200 plate reader (Tecan). Blank values were subtracted from all readings and values were normalized to the DMSO control.
# [5] = biological target: T4, GLUT2 (Homo sapiens, UniProt P11168); test: GLUT2 transporter activity assay in CHO-hGLUT2 cells (indirect, intracellular ATP levels); conditions: CHO-hGLUT2 cell line; read-out: GLUT2 inhibitory activity (IC50)
# T4 sequence (P11168 1-524): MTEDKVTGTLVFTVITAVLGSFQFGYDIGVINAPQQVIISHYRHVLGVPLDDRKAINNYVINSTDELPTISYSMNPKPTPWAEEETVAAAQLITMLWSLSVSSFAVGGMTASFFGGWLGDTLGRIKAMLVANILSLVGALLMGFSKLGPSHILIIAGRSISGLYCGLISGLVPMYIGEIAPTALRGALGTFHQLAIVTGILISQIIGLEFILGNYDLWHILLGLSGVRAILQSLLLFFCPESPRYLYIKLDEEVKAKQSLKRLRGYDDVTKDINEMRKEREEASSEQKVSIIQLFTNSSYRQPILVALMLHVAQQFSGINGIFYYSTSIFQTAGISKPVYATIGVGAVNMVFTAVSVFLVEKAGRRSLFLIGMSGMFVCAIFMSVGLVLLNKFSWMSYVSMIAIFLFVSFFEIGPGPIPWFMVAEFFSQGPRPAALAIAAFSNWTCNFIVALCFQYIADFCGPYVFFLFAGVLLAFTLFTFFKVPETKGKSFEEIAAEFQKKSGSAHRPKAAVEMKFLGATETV
# Description: as §1, §2
# Example 8-3: Indirect Measurement of GLUT2 (SLC2A2) Activity by Quantification of Intracellular ATP Levels
# A combination of small-molecule inhibitors of mitochondrial electron transport chain and glucose catabolism synergistically suppress ATP production and impair cellular viability (Ulanovskaya et al., 2008, 2011; Liu, et al. 2001). We therefore used CHOK1 cells overexpressing SLC2A2 (CHOK1-SLC2A2) in combination with an oxidative phosphorylation inhibitor (Rotenon) to identify GLUT2 inhibitors. CHOK1-SLC2A2 cells were purchased from creative biogene (catNo: CSC-SC014484) and maintained in RPMI1640 supplemented with 10% FBS and 2 mM L-Glutamine. For the Glut2-ATP-Assay, 7,500 cells were seeded in black, clear bottom 384-well plates directly in glucose- and phenolred-free RPMI1640 medium supplemented with 1% FCS and 2 mM L-glutamine and cultured overnight to reduce intracellular ATP levels. Next day, cells were washed and incubated with […] and compounds or DMSO and 2.5 mM fructose in glucose- and phenolred-free RPMI1640 medium for 40 min. The CellTiter-Glo® Luminescence Viability Assay from Promega was used to measure ATP levels. Luminescence was measured with a Victor Multilabel plate reader (Perkin Elmer). Blank values were subtracted from all readings and values were normalized to the DMSO control.
SMILES,IC50 [1],IC50 [2],IC50 [3],IC50 [4],IC50 [5]
"Cc1ccc(CCNC(=O)c2cccc(N3C(=O)NC4CC3(C)Oc3c(OCc5ccc([N+](=O)[O-])cc5)cccc34)c2)cc1 (stereo not shown) [Compound A03, 3-(2-Methyl-10-((4-nitrobenzyl)oxy)-4-oxo-5,6-dihydro-2H-2,6-methanobenzo[g][1,3,5]oxadiazocin-3(4H)-yl)-N-(4-methylphenethyl)benzamide]",0.3 to 1 µM,4 to 10 µM,0.3 to 1 µM,≤ 5 µM,
"Cc1ccc(CCNC(=O)c2cccc(N3C(=O)NC4CC3(C)Oc3c(OCc5ccc(C(C)(C)C)cc5)cccc34)c2)cc1 (stereo not shown) [Compound A06, 3-(10-((4-(tert-Butyl)benzyl)oxy)-2-methyl-4-oxo-5,6-dihydro-2H-2,6-methanobenzo[g][1,3,5]oxadiazocin-3(4H)-yl)-N-(4-methylphenethyl)benzamide]",,,,≤ 5 µM,
"Cc1ccc(CCNC(=O)c2cccc(N3C(=O)NC4CC3(C)Oc3c(OCc5c(C)noc5C)cccc34)c2)cc1 (stereo not shown) [Compound A15, 3-(10-((3,5-Dimethylisoxazol-4-yl)methoxy)-2-methyl-4-oxo-5,6-dihydro-2H-2,6-methanobenzo[g][1,3,5]oxadiazocin-3(4H)-yl)-N-(4-methylphenethyl)benzamide]",0.3 to 1 µM,4 to 10 µM,0.3 to 1 µM,,10 to 25 µM

# The remaining lines, values ahead:
IC50 [1],IC50 [2],IC50 [3],IC50 [4],IC50 [5],SMILES
≤ 0.3 µM,4 to 10 µM,≤ 0.3 µM,≤ 5 µM,,"Cc1ccc(CCNC(=O)c2cccc(N3C(=O)NC4CC3(C)Oc3c(OCc5ccc(C#N)cc5)cccc34)c2)cc1 (stereo not shown) [Compound A05, 3-(10-((4-Cyanobenzyl)oxy)-2-methyl-4-oxo-5,6-dihydro-2H-2,6-methanobenzo[g][1,3,5]oxadiazocin-3(4H)-yl)-N-(4-methylphenethyl)benzamide]"
0.3 to 1 µM,4 to 10 µM,0.3 to 1 µM,≤ 5 µM,,"Cc1ccc(CCNC(=O)c2cccc(N3C(=O)NC4CC3(C)Oc3c(OCc5ccco5)cccc34)c2)cc1 (stereo not shown) [Compound A07, 3-(10-(Furan-2-ylmethoxy)-2-methyl-4-oxo-5,6-dihydro-2H-2,6-methanobenzo[g][1,3,5]oxadiazocin-3(4H)-yl)-N-(4-methylphenethyl)benzamide]"
≤ 0.3 µM,1 to 4 µM,≤ 0.3 µM,,4 to 10 µM,"Cc1ccc(CCNC(=O)c2cccc(N3C(=O)NC4CC3(C)Oc3c(OCc5ccccn5)cccc34)c2)cc1 (stereo not shown) [Compound A11, 3-(2-Methyl-4-oxo-10-(pyridin-2-ylmethoxy)-5,6-dihydro-2H-2,6-methanobenzo[g][1,3,5]oxadiazocin-3(4H)-yl)-N-(4-methylphenethyl)benzamide]"
1 to 4 µM,10 to 25 µM,1 to 4 µM,,> 25 µM,"COC(=O)c1cccc(N2C(=O)NC3CC2(C)Oc2c(OCc4ccccc4)cccc23)c1 (stereo not shown) [Compound A37, methyl 3-(10-(benzyloxy)-2-methyl-4-oxo-5,6-dihydro-2H-2,6-methanobenzo[g][1,3,5]oxadiazocin-3(4H)-yl)benzoate]"

# Reference: patent US20210198269A1, “INHIBITORS OF GLUCOSE TRANSPORTERS (GLUTs)” (LEAD DISCOVERY CENTER GMBH, priority 2018, published 2021)
